Measured values: US11365199B2, “Pyrazole compounds as modulators of FSHR and uses thereof” (Merck Patent GmbH, priority 2013, dated 2022)

Columns and labels:
[1] = biological target: T1, follicle-stimulating hormone (FSH) receptor (Rattus norvegicus, UniProt P20395); assay: Rat granulosa EC50 FSH (Assay B); assay type: cell-based; details: for EC50: rat granulosa cells, read-out: Assay B: Rat granulosa EC50 FSH
T1 construct: endogenous in cells; host or cells: primary rat granulosa cells
T1 sequence (P20395 18-692): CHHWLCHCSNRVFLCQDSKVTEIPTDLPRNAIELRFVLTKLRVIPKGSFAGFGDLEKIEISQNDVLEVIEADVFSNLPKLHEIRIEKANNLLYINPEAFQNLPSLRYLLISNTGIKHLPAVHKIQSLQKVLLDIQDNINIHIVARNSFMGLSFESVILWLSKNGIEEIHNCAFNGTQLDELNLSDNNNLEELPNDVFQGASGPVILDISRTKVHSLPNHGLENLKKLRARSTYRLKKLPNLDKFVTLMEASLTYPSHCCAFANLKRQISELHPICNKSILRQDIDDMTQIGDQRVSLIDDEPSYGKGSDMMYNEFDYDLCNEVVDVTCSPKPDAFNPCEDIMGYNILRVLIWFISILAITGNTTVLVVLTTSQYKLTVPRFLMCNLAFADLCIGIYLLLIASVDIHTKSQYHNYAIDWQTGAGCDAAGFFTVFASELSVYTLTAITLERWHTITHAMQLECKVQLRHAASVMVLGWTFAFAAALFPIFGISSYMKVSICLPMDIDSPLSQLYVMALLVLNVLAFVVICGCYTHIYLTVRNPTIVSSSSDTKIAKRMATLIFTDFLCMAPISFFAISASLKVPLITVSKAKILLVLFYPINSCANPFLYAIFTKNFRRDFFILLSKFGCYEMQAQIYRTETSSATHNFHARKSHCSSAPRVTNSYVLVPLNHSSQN
Experimental: Rat Granulosa EC50 FSH (Assay B)
The assay was performed pursuant to the teaching of Yanofsky et al. (2006) Allosteric activation of the follicle-stimulating hormone (FSH) receptor by selective, nonpeptide agonists (JBC 281(19): 13226-13233, which is incorporated by reference in the disclosure of the invention).

[2] = biological target: T2, FSHR (Homo sapiens, UniProt P23945); assay: EC50 of cyclic AMP production in CHO FSHR cells + EC20 FSH (Assay A); assay type: cell-based; details: CHO FSHR cells + EC20 FSH, cAMP HTRF; read-out: Assay A: EC50 of cyclic AMP production
T2 construct: expressed in transfected cells; host or cells: CHO (Cho-FSHR-LUC-1-1-43)
T2 sequence (P23945 18-695): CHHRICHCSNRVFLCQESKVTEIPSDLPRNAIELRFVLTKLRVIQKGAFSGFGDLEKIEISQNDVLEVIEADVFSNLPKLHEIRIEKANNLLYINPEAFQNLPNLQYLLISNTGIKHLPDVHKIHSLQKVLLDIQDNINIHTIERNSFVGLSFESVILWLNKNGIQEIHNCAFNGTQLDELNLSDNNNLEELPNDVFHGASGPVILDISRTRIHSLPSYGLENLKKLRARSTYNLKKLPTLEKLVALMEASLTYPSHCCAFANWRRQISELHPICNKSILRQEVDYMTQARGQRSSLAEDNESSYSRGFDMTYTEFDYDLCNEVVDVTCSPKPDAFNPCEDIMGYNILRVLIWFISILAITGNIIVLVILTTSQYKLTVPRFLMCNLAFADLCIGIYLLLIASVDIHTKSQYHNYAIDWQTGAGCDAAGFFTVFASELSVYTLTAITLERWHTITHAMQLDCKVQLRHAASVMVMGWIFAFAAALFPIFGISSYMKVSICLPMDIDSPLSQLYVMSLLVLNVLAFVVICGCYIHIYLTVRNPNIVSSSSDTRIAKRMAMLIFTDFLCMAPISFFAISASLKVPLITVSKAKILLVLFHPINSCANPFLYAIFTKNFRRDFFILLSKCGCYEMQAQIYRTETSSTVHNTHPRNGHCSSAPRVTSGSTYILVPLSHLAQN
Procedure, shortened: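 cAMP HTRF read-out (665 nm/620 nm ratio) after 1 h at 37° C of Cho-FSHR-LUC cells treated with serially diluted test compound plus EC20 FSH ([…]) and IBMX (final 200 μM). Responses given as percent of maximal FSH-standard effect.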

EC50 [1] [nM] | EC50 [2] [nM] | Emax at 30 µM ([1]; @ 30 μM, read-out: Assay B: percental effect (response) relative to the maximum response of the FSH standard) [%] | Compound
> 5000 | > 5000 | – | COc1cc2c(cc1OC(C)C)-c1c(c(C(=O)NCCCNC(=O)C3CCC3)nn1-c1ccsc1)CO2 [Compound 28, 8-Isopropoxy-7-methoxy-1-thiophen-3-yl-1,4-dihydro-chromeno[4,3-c]pyrazole-3-carboxylic Acid [3-(cyclobutanecarbonyl-amino)-propyl]-amide]
100 to 1000 | < 100 | – | [2H]C([2H])([2H])N(C(=O)c1nn(-c2ccsc2)c2c1COc1cc(OC)c(-c3ccn(C)c3)cc1-2)C1(C)COC1 [Compound 115]
100 to 1000 | < 100 | – | COc1cc2c(cc1-c1cnn(C3CC3)c1)-c1c(c(C(=O)N3CCOCC3(C)C)nn1-c1ccsc1)CO2 [Compound 215]
100 to 1000 | < 100 | – | COc1cc2c(cc1-c1ncco1)-c1c(c(C(=O)N(C)C(C)(C)C)nn1-c1ccsc1)CO2 [Compound 132, 7-Methoxy-8-oxazol-2-yl-1-thiophen-3-yl-1,4-dihydro-chromeno[4,3-c]pyrazole-3-carboxylic acid tert-butyl-methyl-amide]
1000 to 5000 | < 100 | – | COc1cc2c(cc1-c1ccn(C)c1)-c1c(c(C(=O)N3CCOCC3(C)C)nn1-c1ccsc1)CO2 [Compound 98, (3,3-Dimethyl-morpholin-4-yl)-[7-methoxy-8-(1-methyl-1H-pyrrol-3-yl)-1-thiophen-3-yl-1,4-dihydro-chromeno[4,3-c]pyrazol-3-yl]-methanone]
1000 to 5000 | < 100 | – | COc1cc2c(cc1-c1ccnn1C)-c1c(c(C(=O)N3CCOCC3(C)C)nn1-c1ccsc1)CO2 [Compound 108, (3,3-Dimethyl-morpholin-4-yl)-[7-methoxy-8-(2-methyl-2H-pyrazol-3-yl)-1-thiophen-3-yl-1,4-dihydro-chromeno[4,3-c]pyrazol-3-yl]-methanone]
< 100 | < 100 | – | COc1cc2c(cc1-c1nc[nH]n1)-c1c(c(C(=O)N3CCOCC3(C)C)nn1-c1ccsc1)CO2 [Compound 161, (3,3-Dimethyl-morpholin-4-yl)-[7-methoxy-1-thiophen-3-yl-8-(5H-[1,2,4]triazol-3-yl)-1,4-dihydro-chromeno[4,3-c]pyrazol-3-yl]-methanone]
100 to 1000 | < 100 | – | COc1cc2c(cc1-c1ccn(C)n1)-c1c(c(C(=O)N3CCOCC3C)nn1-c1ccsc1)CO2 (centres unmarked) [Compound 218]
1000 to 5000 | < 100 | – | COc1cc2c(cc1-c1cccn1C)-c1c(c(C(=O)N3CCOCC3(C)C)nn1-c1ccsc1)CO2 [Compound 125, (3,3-Dimethyl-morpholin-4-yl)-[7-methoxy-8-(1-methyl-1H-pyrrol-2-yl)-1-thiophen-3-yl-1,4-dihydro-chromeno[4,3-c]pyrazol-3-yl]-methanone]
1000 to 5000 | < 100 | – | [2H]C([2H])([2H])OCC1(N(C(=O)c2nn(-c3ccsc3)c3c2COc2cc(OC)c(-c4ccnn4C)cc2-3)C([2H])([2H])[2H])COC1 [Compound 119]
– | 1000 to 5000 | 30 | COc1cc2c(cc1C=C(C)C)-c1c(c(C(=O)N3CCCC(C(=O)O)CC3)nn1-c1ccsc1)CO2 (centres unmarked) [Compound 18, 1-[7-Methoxy-8-(2-methyl-propenyl)-1-thiophen-3-yl-1,4-dihydro-chromeno[4,3-c]pyrazole-3-carbonyl]-azepane-4-carboxylic acid]
1000 to 5000 | < 100 | – | COc1cc2c(cc1-c1cccnc1)-c1c(c(C(=O)N3CCCN(C(=O)C4CCC4)CC3)nn1-c1ccsc1)CO2 [Compound 3, (4-Cyclobutanecarbonyl-[1,4]diazepan-1-yl)-(7-methoxy-8-pyridin-3-yl-1-thiophen-3-yl-1,4-dihydro-chromeno[4,3-c]pyrazol-3-yl)-methanone]
< 100 | < 100 | – | CCCn1cc(-c2cc3c(cc2OC)OCc2c(C(=O)N4CCOCC4(C)C)nn(-c4ccsc4)c2-3)cn1 [Compound 211, (3,3-Dimethyl-morpholin-4-yl)-[7-methoxy-8-(1-propyl-1H-pyrazol-4-yl)-1-thiophen-3-yl-1,4-dihydro-chromeno[4,3-c]pyrazol-3-yl]-methanone]
1000 to 5000 | < 100 | – | COc1cc2c(cc1OC(C)C)-c1c(c(C(=O)N(C)C(C)(C)C)nn1-c1ccsc1)CO2 [Compound 19, 8-Isopropoxy-7-methoxy-1-thiophen-3-yl-1,4-dihydro-chromeno[4,3-c]pyrazole-3-carboxylic Acid tert-butyl-methyl-amide]
100 to 1000 | 100 to 1000 | – | COc1cc2c(cc1-c1ccn(C)c1)-c1c(c(C(=O)N3CCN(C(=O)OC(C)(C)C)CC3(C)C)nn1-c1ccsc1)CO2 [Compound 157, 4-[7-Methoxy-8-(1-methyl-1H-pyrrol-3-yl)-1-thiophen-3-yl-1,4-dihydro-chromeno[4,3-c]pyrazole-3-carbonyl]-3,3-dimethyl-piperazine-1-carboxylic acid tert-butyl ester]
100 to 1000 | < 100 | – | COC/C=C/c1cc2c(cc1OC)OCc1c(C(=O)N(C)C(C)(C)C)nn(-c3ccsc3)c1-2 [Compound 147, 7-Methoxy-8-((E)-3-methoxy-propenyl)-1-thiophen-3-yl-1,4-dihydro-chromeno[4,3-c]pyrazole-3-carboxylic acid tert-butyl-methyl-amide]
< 100 | < 100 | – | COc1cc2c(cc1-c1ccn(C)n1)-c1c(c(C(=O)N3CCN(C)CC3(C)C)nn1-c1ccsc1)CO2 [Compound 159, [7-Methoxy-8-(1-methyl-1H-pyrazol-3-yl)-1-thiophen-3-yl-1,4-dihydro-chromeno[4,3-c]pyrazol-3-yl]-(2,2,4-trimethyl-piperazin-1-yl)-methanone]
> 5000 | < 100 | – | COc1cc2c(cc1S(=O)(=O)C(C)C)-c1c(c(C(=O)N(C)C(C)(C)C)nn1-c1ccsc1)CO2 [Compound 79, 7-methoxy-8-(propane-2-sulfonyl)-1-thiophen-3-yl-1,4-dihydro-chromeno[4,3-c]pyrazole-3-carboxylic Acid tert-butyl-methyl-amide]
< 100 | < 100 | – | COc1cc2c(cc1C=C(C)C)-c1c(c(C(=O)N(C)CCN3CCOC3=O)nn1-c1ccsc1)CO2 [Compound 23, 7-Methoxy-8-(2-methyl-propenyl)-1-thiophen-3-yl-1,4-dihydro-chromeno[4,3-c]pyrazole-3-carboxylic Acid methyl-[2-(2-oxo-oxazolidin-3-yl)-ethyl]-amide]
100 to 1000 | < 100 | – | [2H]C([2H])([2H])OCC1(N(C(=O)c2nn(-c3ccsc3)c3c2COc2cc(OC)c(CC(C)C)cc2-3)C([2H])([2H])[2H])COC1 [Compound 162]
100 to 1000 | < 100 | – | COc1cc2c(cc1-c1c[nH]nc1C)-c1c(c(C(=O)N3CCOCC3(C)C)nn1-c1ccsc1)CO2 [Compound 95, (3,3-Dimethyl-morpholin-4-yl)-[7-methoxy-8-(3-methyl-1H-pyrazol-4-yl)-1-thiophen-3-yl-1,4-dihydro-chromeno[4,3-c]pyrazol-3-yl]-methanone]
> 5000 | < 100 | – | COc1cc2c(cc1-c1cc(C)nn1C)-c1c(c(C(=O)N3CCOCC3(C)C)nn1-c1ccsc1)CO2 [Compound 122, (3,3-Dimethyl-morpholin-4-yl)-[8-(2,5-dimethyl-2H-pyrazol-3-yl)-7-methoxy-1-thiophen-3-yl-1,4-dihydro-chromeno[4,3-c]pyrazol-3-yl]-methanone]
